≈ marks a conversion by molar mass, not a printed value. Where two headings read alike, the source gives them in different places. Square brackets hold non-standard residues; d marks the D form. Peptide text beside a SMILES is read from it. Bip = N[C@@H](Cc1ccc(-c2ccccc2)cc1)C(=O)O; NMeM = CN[C@@H](CCSC)C(=O)O; hSer = N[C@@H](CCO)C(=O)O; NMeA = CN[C@@H](C)C(=O)O; Nle = CCCC[C@H](N)C(=O)O; Dap = NC[C@H](N)C(=O)O; Aib = CC(C)(N)C(=O)O
Legend:
[1] = tested on: E. coli BW25113; type: cell-based, Escherichia coli
Summary of the method: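 Growth inhibition: log-phase cells (OD600 ~0.001), peptides in 2-fold series up to 400–800 μM in MHB II, EDTA 0.5 mM (E. coli) or 0.125 mM (USA300), 4 h at 37 °C, ATP luminescence readout. MICs: inoculum at OD600 ~0.0002, with or without EDTA, 20 h at 37 °C, OD600 endpoint.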

[2] = tested on: P. aeruginosa; type: cell-based, Pseudomonas aeruginosa
Description: (§1) Bacterial growth conditions. LB or Mueller Hinton II cation-adjusted broth (MHB II, BBL 212322) was prepared according to manufacturer's instructions and supplemented with arabinose at 0.02% for overnight growth or at indicated concentrations in the description of the figures. Bacterial cultures were grown at 37° C. When appropriate, media was supplemented with kanamycin (50 μg/mL), carbenicillin (50 μg/mL), chloramphenicol (12.5 or 25 μg/mL), hygromycin (200 μg/mL), and/or gentamicin (10 μg/mL).
(§2) Peptide sensitivity and MIC assays. Lyophilized peptides (Smartox Biotechnology, CPC Scientific. ABclonal) were solubilized to 10 mM in Tris buffer, pH 8, prior to making a 2-fold dilution series in MHBII cation adjusted broth with highest final assay concentration of 400-800 μM. Bacteria were grown to log phase and added to final OD600˜0.001. The final EDTA concentration was 0.5 mM for E. coli strains and 0.125 mM for USA300. The final volume of 10 μL/well in a 384 well black, clear bottom plate (Corning) was spun <1 min at <250×g and then incubated at 37° C. After 4 h, an equal volume (10 μL) of BacTiter-Glo™ (Promega) was added to each well and luminescence was read after 5 min on an EnVision plate reader (PerkinElmer). To measure the minimal inhibitory concentrations (MICs), bacteria from fresh overnight plates or log phase cultures were diluted with or without EDTA and peptides as described above to final OD600˜0.0002. Plates were incubated at 37° C. for 20 h before measuring OD600 with an EnVision plate reader.

[3] = tested on: E. coli ΔwaaD MCR-1; experiment: MIC assay, E. coli ΔwaaD MCR-1; type: cell-based, Escherichia coli; settings: Table 7
Description: as §1, §2

[4] = tested on: K. pneumoniae; type: cell-based, Klebsiella pneumoniae
Description: as §1, §2

[5] = tested on: E. coli ΔwaaD + vect.; experiment: MIC assay, E. coli ΔwaaD + vect.; type: cell-based, Escherichia coli; settings: Table 7
Description: as §1, §2

[6] = tested on: A. baumannii; type: cell-based, Acinetobacter baumannii
Description: as §1, §2

Molecule | MIC E. coli BW25113 ([1]; Table 8) | MIC R. aeruginosa ([2]; Table 8) [µM] | MIC E coli ΔwaaD − MCR1 [3] [µM] | MIC K. pneumoniae ([4]; Table 8) [µM] | MIC E. coli ΔwaaD + vect. [5] [µM] | MIC A. baumannii ([6]; Table 8) [µM] | MIC E. coli BW25113 ([1]; BW25113) [µM] | MIC R. aeruginosa [2] [µM] | MIC K. pneumoniae [4] [µM] | MIC A. baumannii [6] [µM]
CCCC[C@H](NC(=O)[C@@H]1CCCN1C(=O)[C@H](Cc1ccc(O)cc1)NC(C)=O)C(=O)N[C@H](C(=O)N[C@@H](C)C(=O)N[C@@H](CCCNC(=N)N)C(=O)N[C@@H](CCCNC(=N)N)C(=O)N[C@@H](Cc1ccccc1)C(=O)N[C@@H](CC(C)C)C(=O)N[C@@H](CCC(=O)O)C(=O)N[C@@H](CCCCN)C(=O)N[C@@H](Cc1c[nH]c2ccccc12)C(=O)NCC(=O)N[C@@H](CC(C)C)C(=O)N[C@@H](CC(C)C)C(=O)N[C@@H](CCCNC(=N)N)C(N)=O)[C@@H](C)O [compound 62] (Ac-YP[Nle]TARRFLEKWGLLR-NH2) | 400 µM (≈ 824 µg/mL) | 200 (≈ 412 µg/mL) | 200 (≈ 412 µg/mL) | 200 (≈ 412 µg/mL) | <6.25 | 200 (≈ 412 µg/mL) |  |  |  | 
CSCC[C@H](NC(=O)[C@H](CN)NC(=O)[C@H](CCSC)NC(=O)[C@@H]1CCCN1C(=O)[C@H](CCCNC(=N)N)NC(C)=O)C(=O)N[C@@H](CCCNC(=N)N)C(=O)N[C@@H](CCCNC(=N)N)C(=O)N[C@@H](Cc1ccc(-c2ccccc2)cc1)C(=O)N[C@@H](CC(C)C)C(=O)N[C@@H](CCC(=O)O)C(=O)N[C@@H](CCCCN)C(=O)N[C@@H](Cc1c[nH]c2ccccc12)C(=O)NCC(=O)N[C@@H](CC(C)C)C(N)=O [compound 209] (Ac-RPM[Dap]MRR[Bip]LEKWGL-NH2) | 6.25 µM (≈ 12 µg/mL) | 25.0 (≈ 48.1 µg/mL) |  | 12.5 (≈ 24 µg/mL) |  | 12.5 (≈ 24 µg/mL) |  |  |  | 
CSCC[C@H](NC(=O)[C@@H]1CCCN1C(=O)[C@H](CCCNC(=N)N)NC(C)=O)C(=O)N[C@H](C(=O)N[C@@H](C)C(=O)N[C@@H](CCCNC(=N)N)C(=O)N[C@@H](CCCNC(=N)N)C(=O)N[C@@H](Cc1c[nH]c2ccccc12)C(=O)N[C@@H](CC(C)C)C(=O)N[C@@H](CCO)C(=O)N[C@@H](CCCCN)C(=O)N[C@@H](CCCNC(=N)N)C(=O)NCC(=O)N[C@@H](CC(C)C)C(N)=O)[C@@H](C)O [compound 211] (Ac-RPMTARRWL[hSer]KRGL-NH2) | 50.0 µM (≈ 89.2 µg/mL) | >400.0 |  | >400.0 |  | >400.0 |  |  |  | 
CSCC[C@H](NC(=O)[C@@H]1CCCN1C(=O)[C@H](Cc1ccc(O)cc1)NC(C)=O)C(=O)N[C@@H](CN)C(=O)N[C@@H](C)C(=O)N[C@@H](CCCNC(=N)N)C(=O)N[C@@H](CCCNC(=N)N)C(=O)N[C@@H](Cc1ccc(-c2ccccc2)cc1)C(=O)N[C@@H](CC(C)C)C(=O)N[C@@H](CCC(=O)O)C(=O)N[C@@H](CCCCN)C(=O)N[C@@H](Cc1c[nH]c2ccccc12)C(=O)NCC(=O)N[C@@H](CC(C)C)C(=O)N[C@@H](CC(C)C)C(=O)N[C@@H](CCCNC(=N)N)C(N)=O [compound 80] (Ac-YPM[Dap]ARR[Bip]LEKWGLLR-NH2) | 12.5 µM (≈ 26.7 µg/mL) | 25.0 (≈ 53.5 µg/mL) |  | 12.5 (≈ 26.7 µg/mL) |  | 12.5 (≈ 26.7 µg/mL) |  |  |  | 
Ac-YPMTFRRFLAKWGLLR-NH2 [compound 87] | 100.0 µM | 50.0 |  | 25.0 |  | 25.0 |  |  |  | 
CSCC[C@H](NC(=O)[C@@H]1CCCN1C(=O)[C@H](Cc1ccc(O)cc1)NC(C)=O)C(=O)N[C@@H](CCO)C(=O)N[C@@H](C)C(=O)N[C@@H](CCCNC(=N)N)C(=O)N[C@@H](CCCNC(=N)N)C(=O)N[C@@H](Cc1ccccc1)C(=O)N[C@@H](CC(C)C)C(=O)N[C@@H](CCC(=O)O)C(=O)N[C@@H](CCCCN)C(=O)N[C@@H](Cc1c[nH]c2ccccc12)C(=O)NCC(=O)N[C@@H](CC(C)C)C(=O)N[C@@H](CC(C)C)C(=O)N[C@@H](CCCNC(=N)N)C(N)=O [compound 63] (Ac-YPM[hSer]ARRFLEKWGLLR-NH2) | 400/200 | 400 (≈ 831 µg/mL) | 200 (≈ 416 µg/mL) | 200 (≈ 416 µg/mL) | <6.25 | 200 (≈ 416 µg/mL) |  |  |  | 
CSCC[C@H](NC(=O)[C@@H]1CCCN1C(=O)[C@H](Cc1ccc(O)cc1)NC(C)=O)C(=O)N[C@H](C(=O)NC(C)(C)C(=O)N[C@@H](CCCNC(=N)N)C(=O)N[C@@H](CCCNC(=N)N)C(=O)N[C@@H](Cc1ccccc1)C(=O)N[C@@H](CC(C)C)C(=O)N[C@@H](CCC(=O)O)C(=O)N[C@@H](CCCCN)C(=O)N[C@@H](Cc1c[nH]c2ccccc12)C(=O)NCC(=O)N[C@@H](CC(C)C)C(=O)N[C@@H](CC(C)C)C(=O)N[C@@H](CCCNC(=N)N)C(N)=O)[C@@H](C)O [compound 93] (Ac-YPMT[Aib]RRFLEKWGLLR-NH2) | 200.0 µM (≈ 419 µg/mL) | >400.0 |  | 400.0 (≈ 837 µg/mL) |  | 50.0 (≈ 105 µg/mL) |  |  |  | 
Ac-RPMTWRRFLAKYGL-NH2 [compound 200] |  |  |  |  |  |  | 50.0 | 50.0 | 200.0 | 50.0
Ac-RPMTWRRFLAKRGL-NH2 [compound 203] |  |  |  |  |  |  | 200.0 | >400.0 | >400.0 | 400.0
Ac-RPMTMRRFLEKWGL-NH2 [compound 206] | 200.0 µM | 200.0 |  | 200.0 |  | 200.0 |  |  |  | 
Ac-RPMTARRFLAKRGL-NH2 [compound 210] | 200.0 µM | >400.0 |  | >400.0 |  | >400.0 |  |  |  | 
CSCC[C@H](NC(=O)[C@@H]1CCCN1C(=O)[C@H](Cc1ccc(O)cc1)NC(C)=O)C(=O)N[C@@H](CN)C(=O)N[C@@H](Cc1ccccc1)C(=O)N[C@@H](CCCNC(=N)N)C(=O)N[C@@H](CCCNC(=N)N)C(=O)N[C@@H](Cc1ccccc1)C(=O)N[C@@H](CC(C)C)C(=O)N[C@@H](CCC(=O)O)C(=O)N[C@@H](CCCCN)C(=O)N[C@@H](Cc1c[nH]c2ccccc12)C(=O)NCC(=O)N[C@@H](CC(C)C)C(=O)N[C@@H](CC(C)C)C(=O)N[C@@H](CCCNC(=N)N)C(N)=O [compound 69] (Ac-YPM[Dap]FRRFLEKWGLLR-NH2) | 50 µM (≈ 107 µg/mL) | 200 (≈ 428 µg/mL) |  | 100 (≈ 214 µg/mL) |  | 12.5 (≈ 26.7 µg/mL) |  |  |  | 
CSCC[C@H](NC(=O)[C@@H]1CCCN1C(=O)[C@H](Cc1ccc(O)cc1)NC(C)=O)C(=O)N[C@@H](CN)C(=O)N[C@@H](C)C(=O)N[C@@H](CCCNC(=N)N)C(=O)N[C@@H](CCCNC(=N)N)C(=O)N[C@@H](Cc1ccccc1)C(=O)N[C@@H](CC(C)C)C(=O)N[C@@H](C)C(=O)N[C@@H](CCCCN)C(=O)N[C@@H](Cc1c[nH]c2ccccc12)C(=O)NCC(=O)N[C@@H](CC(C)C)C(=O)N[C@@H](CC(C)C)C(=O)N[C@@H](CCCNC(=N)N)C(N)=O [compound 86] (Ac-YPM[Dap]ARRFLAKWGLLR-NH2) | 25.0 µM (≈ 50.1 µg/mL) | 50.0 (≈ 100 µg/mL) |  | 50.0 (≈ 100 µg/mL) |  | 25.0 (≈ 50.1 µg/mL) |  |  |  | 
Ac-RPMTFRRFLEKWGL-NH2 [compound 73] | 50 µM | 800 |  | 200 |  | 50 |  |  |  | 
CSCC[C@@H](C(=O)N[C@H](C(=O)N(C)[C@@H](C)C(=O)N[C@@H](CCCNC(=N)N)C(=O)N[C@@H](CCCNC(=N)N)C(=O)N[C@@H](Cc1c[nH]c2ccccc12)C(=O)N[C@@H](CC(C)C)C(=O)N[C@@H](C)C(=O)N[C@@H](CCCCN)C(=O)N[C@@H](CCCNC(=N)N)C(=O)NCC(=O)N[C@@H](CC(C)C)C(N)=O)[C@@H](C)O)N(C)C(=O)[C@@H]1CCCN1C(=O)[C@H](CCCNC(=N)N)NC(C)=O [compound 216] (Ac-RP[NMeM]T[NMeA]RRWLAKRGL-NH2) |  |  |  |  |  |  | 100.0 (≈ 178 µg/mL) | >400.0 | >400.0 | >400.0
CSCC[C@H](NC(=O)[C@H](CN)NC(=O)[C@H](CCSC)NC(=O)[C@@H]1CCCN1C(=O)[C@H](Cc1ccc(O)cc1)NC(C)=O)C(=O)N[C@@H](CCCNC(=N)N)C(=O)N[C@@H](CCCNC(=N)N)C(=O)N[C@@H](Cc1ccc(-c2ccccc2)cc1)C(=O)N[C@@H](CC(C)C)C(=O)N[C@@H](CCC(=O)O)C(=O)N[C@@H](CCCCN)C(=O)N[C@@H](Cc1c[nH]c2ccccc12)C(=O)NCC(=O)N[C@@H](CC(C)C)C(=O)N[C@@H](CC(C)C)C(=O)N[C@@H](CCCNC(=N)N)C(N)=O [compound 82] (Ac-YPM[Dap]MRR[Bip]LEKWGLLR-NH2) | 100.0 µM (≈ 220 µg/mL) | 50.0 (≈ 110 µg/mL) |  | 50.0 (≈ 110 µg/mL) |  | 12.5 (≈ 27.5 µg/mL) |  |  |  | 
